# Measurements as given in paper PMC12380353, “MK-8527 is a novel inhibitor of HIV-1 reverse transcriptase translocation with potential for extended-duration dosing” (PLOS Biology, 2025).
# “And” between values parts separate entries of the source, which are not always exact repeats. Equal values may be shown once. Read-outs that look alike come from different tables or passages of the source.
# Legend:
# [1] = PK in rhesus monkeys (plasma); type: in vivo
# Experimental: For the IV arm of the study, MK-8527 was administered as a bolus via the cephalic vein at 0.5 mg/kg in 30% Captisol (Ligand Pharmaceuticals, Lawrence, KS, USA). […] After the 6-h time point, they were returned to their cages and placed in a bleed chair for the subsequent time points. No anesthesia was used. As enrichment, animals were pair housed with conspecifics in cages with […]. […] Animals were fed certified primate diet (LabDiet 5048) and given a vitamin C supplement daily. In addition, animals received rotational fruit and vegetables as well as a foraging mix daily. All blood samples were centrifuged at 2,000g for 10 min, and the supernatant plasma samples were removed and stored at -70 °C until further analysis. The concentrations of MK-8527 in plasma were determined by LC-MS/MS assays following a protein precipitation step. Aliquots (50 μL) of plasma were precipitated by addition of 150 μL of acetonitrile solution-containing internal standard (IS), followed by centrifugation at 3,000 rpm for 10 min. A 75-μL aliquot of the supernatant was transferred into a 96-well plate, and 5 μL of each sample was used for analysis. LC-MS/MS analysis was performed on a Transcend LC system with HTS PAL CTC autosampler (Thermo Fisher Scientific, Waltham, MA, USA) interfaced to an API-5000 mass spectrometer using the turbo ion spray interface (Sciex, Framingham, MA, USA). Separation of MK-8527 was achieved on an Xselect HSS XP T3 column (50 × 2.1 mm, 2.5 μm; […] The chromatography for plasma samples was run using gradient elution as follows: the column was equilibrated with 100% A. […] The total run time was 4.15 min. Quantification was done by monitoring the transition of m/z 309 to m/z 169 or 133 for MK-8527. The method was linear across a concentration range of 2-10,000 ng/mL in plasma.
# HIV-1 RT = target: T1, HIV-1 RT (Human immunodeficiency virus type 1 group M subtype B, UniProt P04585); experiment: HIV-1 RT biochemical (ECL) assay; settings: purified recombinant RT, n = 8; read-out: IC50, RNA-dependent DNA polymerization
# T1 construct: Full-length WT RT protein was expressed in Escherichia coli BL21(DE3) cells; made in house; host or cells: Escherichia coli BL21(DE3)
# Experimental: Full-length WT RT protein was expressed in Escherichia coli BL21(DE3) cells and purified as described previously. The electrochemiluminescence (ECL) RT biochemical assay was performed based on the previously described protocol.
# Briefly, the heterodimeric nucleic acid substrate used in the HIV-1 RT polymerase reactions was generated by annealing biotinylated DNA primer to a 500-nucleotide RNA template. The HIV-1 RT enzyme (final concentration of 50 pM) was combined with an inhibitor or DMSO (10% DMSO in the final reaction mixture) in assay buffer containing 62.5 mM Tris-HCl, pH 7.8, 1.25 mM dithiothreitol, 7.5 mM MgCl2, 100 mM KCl, 0.03% 3-[(3-cholamidopropyl)-dimethylammonio]-1-propanesulfonate, and 0.125 mM ethylene glycol tetraacetic acid). This mixture was preincubated for 30 min at room temperature in microtiter plates. The polymerization reaction was initiated by the addition of template:primer substrate (final concentration, 16.6 nM), and dNTPs (final concentrations were 2 μM for deoxycytidine triphosphate [dCTP], deoxyguanosine triphosphate [dGTP], and dATP and 66.6 nM for ruthenylated deoxyuridine triphosphate [Ru-dUTP]). […] The mixtures were incubated at room temperature for 60 min prior to the quantification of the reaction product via an ECL 6000 imager instrument. […]
smiles,measurement,setting,value
"C#C[C@]1(CO)O[C@@H](n2ccc3c(N)nc(Cl)nc32)C[C@@H]1O [Compound 12, (2R,3S,5R)-5-(4-amino-2-chloro-7H-pyrrolo[2,3-d]pyrimidin-7-yl)-2-ethynyl-2-(hydroxymethyl)tetrahydrofuran-3-ol]",concentration at 72 h,"[1]; monkeys, oral 50 mg/kg, 0.25 hr, listed as MK-8527, 50 mg/kg, read-out: Concentration in plasma, individual subjects",7.22 µM and 1.93 µM and 8.67 µM
same,concentration at 72 h,"[1]; monkeys, oral 50 mg/kg, 0.5 hr, listed as MK-8527, 50 mg/kg, read-out: Concentration in plasma, individual subjects",11.00 µM and 4.12 µM and 11.10 µM
same,concentration at 72 h,"[1]; monkeys, oral 50 mg/kg, 1 hr, listed as MK-8527, 50 mg/kg, read-out: Concentration in plasma, individual subjects",29.80 µM and 7.40 µM and 20.20 µM
same,concentration at 72 h,"[1]; monkeys, oral 50 mg/kg, 2 hr, listed as MK-8527, 50 mg/kg, read-out: Concentration in plasma, individual subjects",30.50 µM and 11.00 µM and 27.80 µM
same,concentration at 72 h,"[1]; monkeys, oral 50 mg/kg, 4 hr, listed as MK-8527, 50 mg/kg, read-out: Concentration in plasma, individual subjects",15.20 µM and 15.40 µM
same,concentration at 72 h,"[1]; monkeys, oral 50 mg/kg, 6 hr, listed as MK-8527, 50 mg/kg, read-out: Concentration in plasma, individual subjects",14.30 µM and 9.31 µM
same,concentration at 72 h,"[1]; monkeys, oral 50 mg/kg, 24 hr, listed as MK-8527, 50 mg/kg, read-out: Concentration in plasma, individual subjects",1.81 µM and 1.27 µM
same,concentration at 72 h,"[1]; monkeys, oral 50 mg/kg, 30 hr, listed as MK-8527, 50 mg/kg, read-out: Concentration in plasma, individual subjects",0.81 µM and 0.58 µM
same,concentration at 72 h,"[1]; monkeys, oral 50 mg/kg, 48 hr, listed as MK-8527, 50 mg/kg, read-out: Concentration in plasma, individual subjects",0.31 µM and 0.26 µM and 0.13 µM
same,concentration at 72 h,"[1]; monkeys, oral 50 mg/kg, 72 hr, listed as MK-8527, 50 mg/kg, read-out: Concentration in plasma, individual subjects",0.07 µM and 0.05 µM
same,concentration at 72 h,"[1]; monkeys, oral 50 mg/kg, 168 hr, listed as MK-8527, 50 mg/kg, read-out: Concentration in plasma, individual subjects",0.0143 µM and 0.0113 µM and 0.00651 µM
same,half-life,"[1]; rhesus monkey, plasma, iv, 0.5 mg/kg, monkey, plasma, IV 0.5 mg/kg, read-out: t½ (converted)",~7 h
same,concentration at 0.25 h,"[1]; rhesus monkey, plasma, po, 50 mg/kg, monkeys, oral 50 mg/kg, 0.25 hr, read-out: Arithmetic Mean Concentration in plasma",4.94 µM
same,concentration at 0.5 h,"[1]; rhesus monkey, plasma, po, 50 mg/kg, monkeys, oral 50 mg/kg, 0.5 hr, read-out: Arithmetic Mean Concentration in plasma",7.95 µM
same,concentration at 1 h,"[1]; rhesus monkey, plasma, po, 50 mg/kg, monkeys, oral 50 mg/kg, 1 hr, read-out: Arithmetic Mean Concentration in plasma",16.4 µM
same,concentration at 30 h,"[1]; rhesus monkey, plasma, po, 50 mg/kg, monkeys, oral 50 mg/kg, 30 hr, read-out: Arithmetic Mean Concentration in plasma",0.79 µM
same,concentration at 30 h,"[1]; rhesus monkey, plasma, po, 50 mg/kg, monkeys, oral 50 mg/kg, 30 hr, read-out: Concentration in plasma, individual subjects",1.04 µM
same,concentration at 48 h,"[1]; rhesus monkey, plasma, po, 50 mg/kg, monkeys, oral 50 mg/kg, 48 hr, read-out: Arithmetic Mean Concentration in plasma",0.22 µM
same,concentration at 72 h,"[1]; rhesus monkey, plasma, po, 50 mg/kg, monkeys, oral 50 mg/kg, 72 hr, read-out: Arithmetic Mean Concentration in plasma",0.07 µM
same,concentration at 72 h,"[1]; rhesus monkey, plasma, po, 50 mg/kg, monkeys, oral 50 mg/kg, 72 hr, read-out: Concentration in plasma, individual subjects",0.09 µM
same,concentration at 168 h,"[1]; rhesus monkey, plasma, po, 50 mg/kg, monkeys, oral 50 mg/kg, 168 hr, read-out: Arithmetic Mean Concentration in plasma",0.01 µM
same,clearance,"[1]; rhesus monkey, plasma, monkey, IV 0.5 mg/kg, read-out: CLp",12.6 ± 3.3 mL/min/kg
same,Vd,"[1]; rhesus monkey, plasma, monkey, IV 0.5 mg/kg, read-out: Vdss",4.4 ± 0.8 L/kg
same,bioavailability,"[1]; rhesus monkey, plasma, monkey, oral 1 mg/kg",100%
same,concentration at 2 h,"[1]; rhesus, rhesus monkey, plasma, po, 50 mg/kg, monkeys, oral 50 mg/kg, 2 hr, read-out: Arithmetic Mean Concentration in plasma",21.1 µM
same,concentration at 4 h,"[1]; rhesus, rhesus monkey, plasma, po, 50 mg/kg, monkeys, oral 50 mg/kg, 4 hr, read-out: Arithmetic Mean Concentration in plasma",15.8 µM
same,concentration at 4 h,"[1]; rhesus, rhesus monkey, plasma, po, 50 mg/kg, monkeys, oral 50 mg/kg, 4 hr, read-out: Concentration in plasma, individual subjects",16.9 µM
same,concentration at 6 h,"[1]; rhesus, rhesus monkey, plasma, po, 50 mg/kg, monkeys, oral 50 mg/kg, 6 hr, read-out: Arithmetic Mean Concentration in plasma",11 µM
same,concentration at 6 h,"[1]; rhesus, rhesus monkey, plasma, po, 50 mg/kg, monkeys, oral 50 mg/kg, 6 hr, read-out: Concentration in plasma, individual subjects",10.1 µM
same,concentration at 24 h,"[1]; rhesus, rhesus monkey, plasma, po, 50 mg/kg, monkeys, oral 50 mg/kg, 24 hr, read-out: Arithmetic Mean Concentration in plasma",1.75 µM
same,concentration at 24 h,"[1]; rhesus, rhesus monkey, plasma, po, 50 mg/kg, monkeys, oral 50 mg/kg, 24 hr, read-out: Concentration in plasma, individual subjects",2.34 µM
C#C[C@]1(COP(=O)(O)OP(=O)(O)OP(=O)(O)O)O[C@@H](n2ccc3c(N)nc(Cl)nc32)C[C@@H]1O [MK-8527-TP],IC50,HIV-1 RT,813 ± 238 nM
